These results are taken from paper PMC10511816 (The Journal of Biological Chemistry, 2023).

“And” between values parts separate entries of the source, which are not always exact repeats. Identical values can stand only once. A value given as a limit tells only on which side of the number the result lay.

Experiment [1] has as its target T1, XO (Bos taurus, UniProt P80457). To be noted: 3 μM allopurinol, 2 μM xanthine, 2.56 nM XO, pH 7.4, 37 °C.
The test system of experiment [2] is hypoxanthine-guanine phosphoribosyltransferase (HGPRT). To be noted: cited from earlier work.
Experiment [3] has as its target T2, XOR (Bos taurus, UniProt P80457).
T2 construct: Bovine milk was obtained from the animal farm of the Nippon Veterinary and Life Science University; from tissue; host or cells: bovine milk
Description: XOR kinetics with phenazine methosulfate / cytochrome c reduction (550 nm). Type of experiment: biochemical, bovine. To be noted: for Types of inhibition / Ki: XOR; for Types of inhibition: PMS. On the procedure: Therefore, phenazine methosulfate was used to induce direct, rapid reoxidation of the molybdenum center ([22], [23]).
(§1) Bovine milk was obtained from the animal farm of the Nippon Veterinary and Life Science University. […] The dehydrogenase form of the enzyme (XDH) was obtained by reacting XO immediately upon purification with 5 mM DTT at pH 8.5, 25 °C for 1 h. XO and XDH assays were carried out at 25 °C under aerobic conditions. […] A total of 500 μM β-NAD^+ was added to the same reaction solution for XDH activity. Physiological conditions such as pH 7.4 (0.1 M potassium phosphate buffer (KPB), 0.2 mM EDTA) and the addition of 50 μM β-NADH were also used. […] In addition, the enzyme reaction solution was quenched with perchloric acid and neutralized with K2CO3, with products analyzed using HPLC as described below. Spectrophotometric data were analyzed using UV-Probe software Ver. 2.70 or LabSolutions UV-Vis Ver. […] Kinetic parameters were determined from nonlinear curve fits of raw data using GraphPad Prism 9 software.
(§2) A295 indicates the concentration of uric acid yielded by XOR. […] A295 indicates the concentration of uric acid yielded by XOR. Figure S2. The XOR inhibition mode of oxypurinol.A–G, Lineweaver-Burk plots were generated to visualize data and estimated the inhibition patterns. Data are representative of least two independent experiments. […] Figure S3. […] B, mode of inhibition of oxypurinol on the inosine degradation reaction of PNP. […] 0, 250, 375, 500, 750 and 1000 μM of oxypurinol were used. […] The rate of NAD^+ conversion to NADH was measured at A340 nm.

In experiment [4] the target is T3, Purine nucleoside phosphorylase (PNP) (Homo sapiens, UniProt P00491).
T3 construct: purchased Sigma-Aldrich; host or cells: E. coli
T3 sequence (P00491 1-289): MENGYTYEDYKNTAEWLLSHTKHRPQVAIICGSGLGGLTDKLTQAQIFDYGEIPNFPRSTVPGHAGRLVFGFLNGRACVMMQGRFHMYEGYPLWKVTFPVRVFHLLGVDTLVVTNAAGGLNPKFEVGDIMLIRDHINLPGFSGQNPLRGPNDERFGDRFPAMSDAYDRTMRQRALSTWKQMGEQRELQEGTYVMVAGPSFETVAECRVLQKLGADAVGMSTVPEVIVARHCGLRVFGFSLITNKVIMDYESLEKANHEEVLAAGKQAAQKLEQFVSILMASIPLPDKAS
Also noted: method as in PMID 5653179, PMID 121041. To be noted: cited from earlier work.

The next experiment addresses T4, XO type enzyme (Bos taurus, UniProt P80457).
T4 construct: Bovine milk was obtained from the animal farm of the Nippon Veterinary and Life Science University; from tissue; host or cells: bovine milk
Description: half-life of the Ered•oxypurinol complex (activity recovery). Type of experiment: biochemical, bovine. On the procedure: We next examined the half-life of the Ered•oxypurinol complex under more physiological conditions.
The main figure plots activity (%) against time.
Uric acid production was measured at 295 nm with UV-1800 Spectrophotometer at 25 °C. The activity recovery was followed overtime until the activity to flavin ratio reached approximately 200, indicating full reactivation.

The target of experiment [5] is T1, XO. Description: initial-velocity steady-state kinetics of XO, O2 as electron acceptor. The experiment is classed as biochemical, bovine. Also noted: Bovine milk was obtained from the animal farm of the Nippon Veterinary and Life Science University; from tissue; host or cells: bovine milk. The protocol: as §1, with “used. The activity was measured by following 295 nm and 340 nm on a UV-1800 or UV1900i spectrophotometer.” for “used.”
as §2

The subject of experiment [6] is XOR. To be noted: pH 8.5 and 25 °C; cited from earlier work.
In the next experiment the test system is xanthine oxidase. More on the design: method as in Graham et al. 64. To be noted: ref Graham et al. 64; cited from earlier work.
Where [7] appears, read: as substrate of XOR, electron acceptor PMS, mean ± S.E.

T2 sequence (P80457 whole entry): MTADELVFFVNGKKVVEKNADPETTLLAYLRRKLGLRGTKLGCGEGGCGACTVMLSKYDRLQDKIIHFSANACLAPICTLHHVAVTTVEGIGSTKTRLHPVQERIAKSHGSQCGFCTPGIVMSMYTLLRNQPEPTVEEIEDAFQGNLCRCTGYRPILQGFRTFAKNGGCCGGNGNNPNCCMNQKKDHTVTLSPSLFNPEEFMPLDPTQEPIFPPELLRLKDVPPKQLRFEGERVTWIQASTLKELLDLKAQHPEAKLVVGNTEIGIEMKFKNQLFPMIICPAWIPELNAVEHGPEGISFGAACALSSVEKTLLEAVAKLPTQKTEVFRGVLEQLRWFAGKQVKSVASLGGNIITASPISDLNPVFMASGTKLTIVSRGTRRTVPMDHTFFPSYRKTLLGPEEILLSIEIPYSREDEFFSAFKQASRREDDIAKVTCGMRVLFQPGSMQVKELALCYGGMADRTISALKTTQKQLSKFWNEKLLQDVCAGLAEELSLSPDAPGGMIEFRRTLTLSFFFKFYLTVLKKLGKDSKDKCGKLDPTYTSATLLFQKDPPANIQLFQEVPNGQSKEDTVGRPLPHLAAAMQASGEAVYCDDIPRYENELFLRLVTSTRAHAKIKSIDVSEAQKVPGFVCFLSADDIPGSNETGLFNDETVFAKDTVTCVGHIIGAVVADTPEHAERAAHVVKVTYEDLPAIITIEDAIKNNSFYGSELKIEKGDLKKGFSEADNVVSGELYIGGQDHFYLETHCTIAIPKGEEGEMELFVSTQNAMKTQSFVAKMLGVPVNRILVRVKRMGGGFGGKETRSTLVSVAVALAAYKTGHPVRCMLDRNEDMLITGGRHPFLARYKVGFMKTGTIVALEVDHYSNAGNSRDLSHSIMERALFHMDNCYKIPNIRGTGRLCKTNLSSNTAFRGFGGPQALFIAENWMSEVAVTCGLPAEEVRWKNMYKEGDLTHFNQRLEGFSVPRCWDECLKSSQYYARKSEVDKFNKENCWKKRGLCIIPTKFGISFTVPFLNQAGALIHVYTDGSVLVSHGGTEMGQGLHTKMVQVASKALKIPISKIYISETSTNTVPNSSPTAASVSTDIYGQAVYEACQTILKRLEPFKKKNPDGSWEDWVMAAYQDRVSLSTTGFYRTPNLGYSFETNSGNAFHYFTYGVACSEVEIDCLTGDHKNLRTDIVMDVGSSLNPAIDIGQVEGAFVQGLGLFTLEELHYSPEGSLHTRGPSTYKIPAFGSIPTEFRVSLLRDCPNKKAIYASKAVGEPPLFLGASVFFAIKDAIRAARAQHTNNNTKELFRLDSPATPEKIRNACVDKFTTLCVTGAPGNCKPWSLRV
T1 sequence (P80457 whole entry): as above
T4 sequence (P80457 whole entry): as above

With `Oc1ncnc2[nH]ncc12` [Allopurinol], on XO [1], the “immediate accumulation of oxypurinol” value was found to be 0.5 µM, the “time at which xanthine was completely converted to uric acid” value amounted to 300 min and the “time for which uric acid production was stopped” value was “up to 60 min”. Moreover, the “substrate or inhibitor of HGPRT” value in experiment [2] is “is a substrate”. For the same compound, at XOR [3] (setting [7]), the Km was determined as 3.59 ± 0.45 µM and the kcat was 26.17 ± 1.96 s⁻¹. The Ki in experiment [4] is over 200000 nM.

With `O=c1[nH]c(=O)c2c[nH]nc2[nH]1` [Oxypurinol], the “half-life of the Ered•oxypurinol complex” value at XO type enzyme (pH 7.4, 25 °C) was 9.2 h and 9.198 h; on XO type enzyme (pH 7.4, 37 °C), 1.17 h and 1.22 h; on XO type enzyme (pH 8.5, 37 °C), 1.17 h and 1.18 h. In addition, the Types of inhibition result at XOR [3] (substrate hypoxanthine) is “Competitive”; at XOR [3] (substrate xanthine), “Competitive”; on XO [5] (XO, substrate xanthine, O2, 295 nm) it was “Competitive”. In addition, the Ki stood at 1290 ± 140 nM at XOR [3] (substrate hypoxanthine, electron acceptor PMS, mean ± S.E.); 1650 ± 240 nM on XOR [3] (substrate xanthine, electron acceptor PMS, mean ± S.E.); 6350 ± 960 nM on XO [5]. The “Ki for oxypurinol relative to Ki for allopurinol” value at XO [5] (both XO and XDH, allopurinol Ki ref 19) is listed as “about 10 fold”. For the same compound, the “half-life for reoxidation / dissociation of the Ered•oxypurinol complex” value with XOR [6] is 5 h. Further, the “oxypurinol concentration at which xanthine oxidase is maximally inhibited” value in the experiment on xanthine oxidase is 33.75 µM.
